Results from patent publication US20240368150A1 (Hoffmann-La Roche Inc., priority 2021, published 2024).
Where two headings read alike, the source gives them in different places.

Assays:
[1] = target: hDGKalpha(1-735)-N-His (Homo sapiens (Human), UniProt P23743); assay: DGKalpha ADP Glo assay (in vitro DGK inhibition); format: biochemical; details: DLG 125 uM, ATP 25 μM, DGK α 4 nM, 1 hour reaction
Procedure: (§1) DGK α and ζ kinase use ATP to phosphorylate the substrate 1,2-dilauroyl-sn-glycerol (DLG, incorporated in the liposomes). ATP is converted to ADP as a result of this enzymatic reaction. After the kinase reaction, an ATP-depletion reagent is added to terminate the kinase reaction and deplete any remaining ATP, leaving only ADP. Second, a detection reagent is added to simultaneously convert ADP to ATP and allow the newly synthesized ATP to be converted to light using a coupled luciferase/luciferin reaction.
(§2) Purification of both enzymes was performed as previously described by Takahashi et al., PeerJ, 2018 (Takahashi, D.; Sakane, F. Expression and purification of human diacylglycerol kinase alpha from baculovirus-infected insect cells for structural studies. PeerJ 2018, 6, No. e5449).
(§3) A concentrated liposome solution was prepared in assay buffer without DTT and BSA: 2 mM of DLG in 21 mM of total liposome (2 mM DLG/8 mM PS/11 mM PC). […] The reactions were started by addition of DGK α and ζ kinases at 4 nM and 2 nM final concentrations, respectively. After 1 hour reaction, the amount of ADP formed was detected with the ADP-Glo kinase assay (Promega) according to the manufacturer instructions. Compounds were added in 11-points dose response, starting at […], 1:3 dilutions, with a final DMSO concentration of 2%. The multidrop combi was used as a liquid handler and luminescence was read with 0.5 s by the envision reader (PE).

[2] = system: primary human T-cells
[3] = target: hDGKzeta(1-928)-N-His (Homo sapiens (Human), UniProt Q13574); assay: DGKzeta ADP Glo assay (in vitro DGK inhibition); format: biochemical; details: DLG 125 uM, ATP 50 μM, DGK ζ 2 nM, 1 hour reaction
Procedure: as §1, §2, §3

[4] = system: MV-3 cells; assay: T-cell - TCB - MV3 killing assay (MCSP-TCB, RFP object count by Incucyte); format: cell-based, human; details: 5 d; for Emax / MSCP TCB killing MV-3 cells 5 d Emax: normalized: MCSP-TCB only = neutral control, 20 μM reference compound A1 = 100%; for Emax: read-out: MSCP TCB killing MV-3 cells 5 d Emax; for EC50: primary human T-cells + MCSP-TCB, MV-3 RFP cells, read-out: MSCP TCB killing MV-3 cells 5 d EC50
[5] = system: primary human T-cells; assay: Proliferation assay after 5 days (CellTiter-Glo, CD3 stimulation; PBS counter screen); format: cell-based; details: CD3 stimulation; for Emax proliferation (% activation) / Emax: 5 days, normalized to reference compound A1 as stimulator control = 100%, DMSO neutral control; for EC50: primary human T-cells, CellTiter-Glo after 5 days, EC50 of fitted sigmoidal curve, read-out: Tcell Proliferation CD3 EC50; for Emax: read-out: Emax proliferation (% activation)
Method in brief: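 Luminescent ATP detection (CellTiter-Glo 2.0) quantified cell number 5 days after compounds went onto medium-only plates. Wells showing visible toxicity or precipitate were noted beforehand, and compounds that stimulated unstimulated cells or lowered viability were flagged.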

hDGKzeta(1-928)-N-His, sequence (Q13574 whole entry): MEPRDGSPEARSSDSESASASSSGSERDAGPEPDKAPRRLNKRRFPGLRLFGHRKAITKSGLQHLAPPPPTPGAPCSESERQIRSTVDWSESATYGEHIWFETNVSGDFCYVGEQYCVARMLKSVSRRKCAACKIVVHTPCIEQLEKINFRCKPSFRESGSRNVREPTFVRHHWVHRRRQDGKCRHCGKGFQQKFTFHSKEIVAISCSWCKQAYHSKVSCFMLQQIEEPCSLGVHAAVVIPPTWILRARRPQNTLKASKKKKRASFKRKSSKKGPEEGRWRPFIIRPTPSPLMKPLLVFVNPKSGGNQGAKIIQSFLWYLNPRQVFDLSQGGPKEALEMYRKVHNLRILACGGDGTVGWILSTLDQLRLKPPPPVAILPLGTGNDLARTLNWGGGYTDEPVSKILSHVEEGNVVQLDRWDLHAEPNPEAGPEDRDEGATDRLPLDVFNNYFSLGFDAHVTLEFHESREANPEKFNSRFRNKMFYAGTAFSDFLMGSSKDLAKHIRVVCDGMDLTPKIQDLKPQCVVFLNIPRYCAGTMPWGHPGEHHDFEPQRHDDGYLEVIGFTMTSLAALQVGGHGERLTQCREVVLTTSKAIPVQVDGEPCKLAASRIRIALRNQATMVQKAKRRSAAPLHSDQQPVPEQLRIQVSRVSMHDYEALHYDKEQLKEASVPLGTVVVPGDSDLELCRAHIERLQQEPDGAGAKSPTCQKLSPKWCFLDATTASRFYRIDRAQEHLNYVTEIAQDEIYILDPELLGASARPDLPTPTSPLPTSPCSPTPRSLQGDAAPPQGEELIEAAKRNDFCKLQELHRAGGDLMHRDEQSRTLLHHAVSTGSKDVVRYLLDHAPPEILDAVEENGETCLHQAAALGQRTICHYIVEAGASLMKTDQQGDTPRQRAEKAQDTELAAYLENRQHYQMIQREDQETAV
hDGKalpha(1-735)-N-His, sequence (P23743 whole entry): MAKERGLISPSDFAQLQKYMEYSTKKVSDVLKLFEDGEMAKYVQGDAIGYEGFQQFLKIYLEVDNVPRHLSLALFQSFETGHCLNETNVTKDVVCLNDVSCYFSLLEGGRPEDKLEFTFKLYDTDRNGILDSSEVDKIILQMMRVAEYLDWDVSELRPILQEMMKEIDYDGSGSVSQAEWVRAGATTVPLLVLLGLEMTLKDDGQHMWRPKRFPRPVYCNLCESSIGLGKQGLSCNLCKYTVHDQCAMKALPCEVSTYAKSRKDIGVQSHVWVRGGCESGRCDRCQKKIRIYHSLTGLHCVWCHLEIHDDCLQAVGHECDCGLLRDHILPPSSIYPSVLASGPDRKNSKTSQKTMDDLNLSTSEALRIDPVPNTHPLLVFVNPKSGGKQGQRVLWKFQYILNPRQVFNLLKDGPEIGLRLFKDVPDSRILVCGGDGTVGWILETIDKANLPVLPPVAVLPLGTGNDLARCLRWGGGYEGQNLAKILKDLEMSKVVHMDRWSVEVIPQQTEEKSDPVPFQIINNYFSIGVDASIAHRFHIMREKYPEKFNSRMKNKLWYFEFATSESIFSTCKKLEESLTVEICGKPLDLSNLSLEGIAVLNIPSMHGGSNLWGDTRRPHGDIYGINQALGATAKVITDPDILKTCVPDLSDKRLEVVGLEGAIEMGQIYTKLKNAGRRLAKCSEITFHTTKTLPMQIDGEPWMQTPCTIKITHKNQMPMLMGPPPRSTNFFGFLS

SMILES | IC50 [1] | EC50 [2] | IC50 [3] | Emax ([4]; Homo sapiens, MV-3, 120 h) | EC50 [4] | Emax proliferation (% activation) [5] | EC50 [5] | MSCP TCB killing MV-3 cells 5 d Emax [4] | EC50 ([4]; Homo sapiens, MV-3, 120 h) | EC50 ([5]; Homo sapiens, T-cell, 120 h) | Emax ([5]; Homo sapiens, T-cell, 120 h)
N[C@H]1C[S+]([O-])c2cc(F)c(-c3noc(N4CCOC5CC54)n3)cc2N(Cc2ccc(Cl)cc2)C1=O (single isomer, unassigned; epimer a) [Example 207] | > 62.5 µM | 4.38 µM | 0.193 µM | 90% |  | 280 % activation | 1.86 µM |  | 0.16 µM |  | 
CC(C)(C)n1nnc(-c2cc3c(cc2F)S(=O)(=O)C[C@H](NC(=O)CN)C(=O)N3Cc2ccc(Cl)cc2)n1 [Example 29, 2-amino-N-[(3R)-7-(2-tert-butyltetrazol-5-yl)-5-[(4-chlorophenyl)methyl]-8-fluoro-1,1,4-trioxo-2,3-dihydro-1lambda6,5-benzothiazepin-3-yl]acetamide] | > 62.5 µM | 0.855 µM | 33.1 µM | 95% |  |  |  |  | 0.037 µM | 0.0936 µM | 172%
COC(=O)N1CC2CC(c3nnc(-c4cc5c(cc4F)S(=O)(=O)C[C@H](N)C(=O)N5Cc4ccc(Cl)cc4)o3)(C2)C1 [Example 184, methyl 1-[5-[(3R)-3-amino-5-[(4-chlorophenyl)methyl]-8-fluoro-1,1,4-trioxo-2,3-dihydro-1λ^6,5-benzothiazepin-7-yl]-1,3,4-oxadiazol-2-yl]-3-azabicyclo[3.1.1]heptane-3-carboxylate] | 0.244 µM | 0.109 µM | 0.29 µM | 79% |  |  |  |  | 0.09 µM | 0.0242 µM | 77%
N[C@H]1CS(=O)(=O)c2ccc(-c3nnc(N4[C@@H]5CC[C@H]4COC5)o3)cc2N(Cc2ccc(Cl)cc2)C1=O [Example 407, (3R)-3-amino-5-[(4-chlorophenyl)methyl]-7-[5-[(1R,5S)-3-oxa-8-azabicyclo[3.2.1]octan-8-yl]-1,3,4-oxadiazol-2-yl]-1,1-dioxo-2,3-dihydro-1λ^6,5-benzothiazepin-4-one] | 1.42 µM | > 10 µM | 2.66 µM |  |  |  |  |  |  | 2.81 µM | 96%
CC(C)(C)c1nnc(-c2ccc3c(c2)N(Cc2ccc(OC(F)(F)C(F)F)cc2)C(=O)[C@@H](N)CS3(=O)=O)o1 [Example 442, (3R)-3-amino-7-(5-tert-butyl-1,3,4-oxadiazol-2-yl)-1,1-dioxo-5-[[4-(1,1,2,2-tetrafluoroethoxy)phenyl]methyl]-2,3-dihydro-1λ^6,5-benzothiazepin-4-one] | 1.39 µM | 0.148 µM | 0.285 µM |  |  |  |  |  |  | 0.24 µM | 134%
COC(=O)N1CCC(c2nnc(-c3ccc4c(c3)N(Cc3ccc(OC5CCCC5)cc3)C(=O)[C@@H](N)CS4(=O)=O)o2)C1 (stereo partly drawn) [Example 444, methyl 3-[5-[(3R)-3-amino-5-[[4-(cyclopentoxy)phenyl]methyl]-1,1,4-trioxo-2,3-dihydro-1λ^6,5-benzothiazepin-7-yl]-1,3,4-oxadiazol-2-yl]pyrrolidine-1-carboxylate] | 6.11 µM | > 10 µM | 1.91 µM |  |  |  |  |  |  | 2.37 µM | 99%
N[C@H]1CS(=O)(=O)c2cc(F)c(-c3noc(C4(CO)CCCO4)n3)cc2N(Cc2ccc(Oc3ccccc3)cc2)C1=O (stereo partly drawn) [Example 521, (3R)-3-amino-8-fluoro-7-[5-[2-(hydroxymethyl)tetrahydrofuran-2-yl]-1,2,4-oxadiazol-3-yl]-1,1-dioxo-5-[(4-phenoxyphenyl)methyl]-2,3-dihydro-1λ^6,5-benzothiazepin-4-one] | 3 µM | 0.783 µM | 0.338 µM |  |  |  |  |  |  | 0.622 µM | 189%
CN1CCCC(F)(c2nc(-c3cc4c(cc3F)S(=O)(=O)C[C@H](N)C(=O)N4Cc3ccc(Oc4ccccc4)cc3)no2)C1 (stereo partly drawn) [Example 522, (3R)-3-amino-8-fluoro-7-[5-(3-fluoro-1-methyl-3-piperidyl)-1,2,4-oxadiazol-3-yl]-1,1-dioxo-5-[(4-phenoxyphenyl)methyl]-2,3-dihydro-1λ^6,5-benzothiazepin-4-one] | 4.07 µM | 0.619 µM | 0.529 µM |  |  |  |  |  |  | 0.782 µM | 161%
CC(C)(C)c1nnc(-c2cc3c(cc2Cl)S(=O)(=O)C[C@H](N)C(=O)N3Cc2ccc(Cl)cc2)o1 [Example 523, (3R)-3-amino-7-(5-tert-butyl-1,3,4-oxadiazol-2-yl)-8-chloro-5-[(4-chlorophenyl)methyl]-1,1-dioxo-2,3-dihydro-1λ^6,5-benzothiazepin-4-one] | 1.29 µM | 5.28 µM | 1.51 µM |  |  |  |  |  |  | 0.462 µM | 45%

Second part, led by results:

IC50 [1] | EC50 [2] | IC50 [3] | SMILES | Emax ([4]; Homo sapiens, MV-3, 120 h) | EC50 [4] | Emax proliferation (% activation) [5] | EC50 [5] | MSCP TCB killing MV-3 cells 5 d Emax [4] | EC50 ([4]; Homo sapiens, MV-3, 120 h) | EC50 ([5]; Homo sapiens, T-cell, 120 h) | Emax ([5]; Homo sapiens, T-cell, 120 h)
0.272 µM | 0.299 µM | 0.316 µM | CC(C)(C)c1nnc(-c2cc3c(cc2F)S(=N)(=O)C[C@H](N)C(=O)N3Cc2ccc(OC(F)(F)F)cc2)o1 (single isomer, unassigned) [Example 517] | 79% | 0.33 µM | 90 % activation | 2.93 µM |  |  |  | 
0.442 µM | 0.135 µM | 0.639 µM | CC(C)(C)c1nnc(-c2cc3c(cc2F)S(=N)(=O)C[C@H](N)C(=O)N3Cc2ccc(OC(F)(F)F)cc2)o1 (single isomer, unassigned) [Example 518] |  | 0.96 µM | 58 % activation | 9.07 µM | 78% |  |  | 
0.34 µM | 0.121 µM | 0.4 µM | CC(C)(C)c1nnc(-c2cc3c(cc2F)[S+]([O-])C[C@H](N)C(=O)N3Cc2ccc(OC(F)(F)F)cc2)o1 (single isomer, unassigned; epimer a) [Example 452] |  | 0.23 µM | 165 % activation |  | 81% |  | 0.468 µM | 
0.21 µM | 0.0367 µM | 0.254 µM | CC(C)(C)c1nnc(-c2cc3c(cc2F)S(=O)(=O)C[C@H](N)C(=O)N3Cc2ccc(OC(F)(F)F)cc2)o1 [Example 57, (3R)-3-Amino-7-(5-tert-butyl-1,3,4-oxadiazol-2-yl)-8-fluoro-1,1-dioxo-5-[[4-(trifluoromethoxy)phenyl]methyl]-2,3-dihydro-1λ^6,5-benzothiazepin-4-one] | 100% |  |  |  |  | 0.05 µM | 0.0327 µM | 231%
0.452 µM | 0.149 µM | 0.622 µM | CC(C)(C)c1nnc(-c2cc3c(cc2F)[S+]([O-])C[C@H](N)C(=O)N3Cc2ccc(OC(F)(F)F)cc2)o1 (stereo partly drawn) [Example 62, (3R)-3-amino-7-(5-tert-butyl-1,3,4-oxadiazol-2-yl)-8-fluoro-1-oxo-5-[[14-(trifluoromethoxy)phenyl]methyl]-2,3-dihydro-1λ^4,5-benzothiazepin-4-one] | 81% |  | 88 % activation | 0.721 µM |  | 0.26 µM |  | 
0.643 µM | 4.18 µM | 0.685 µM | CC(C)(CO)c1nnc(-c2cc3c(cc2F)S(=O)(=O)C[C@H](N)C(=O)N3Cc2ccc(Cl)cc2)o1 [Example 86, (3R)-3-amino-5-[(4-chlorophenyl)methyl]-8-fluoro-7-[5-(2-hydroxy-1,1-dimethyl-ethyl)-1,3,4-oxadiazol-2-yl]-1,1-dioxo-2,3-dihydro-1λ^6,5-benzothiazepin-4-one] | 100% |  |  |  |  | 0.52 µM | 0.777 µM | 95%
0.797 µM | 0.701 µM | 1.34 µM | CC(C)(C)c1nnc(-c2ccc3c(c2)N(Cc2ccc(Oc4ccccc4)cc2)C(=O)[C@@H](N)CS3(=O)=O)o1 [Example 438, (3R)-3-amino-7-(5-tert-butyl-1,3,4-oxadiazol-2-yl)-1,1-dioxo-5-[(4-phenoxyphenyl)methyl]-2,3-dihydro-1λ^6,5-benzothiazepin-4-one] |  |  |  |  |  |  | 0.246 µM | 78%
